Results on 22 molecules are retold here after patent publication US20140057895A1, “INDAZOLE- AND PYRROLOPYRIDINE-DERIVATIVE AND PHARMACEUTICAL USE THEREOF” (priority 2011, published 2014).

In one assay the target is T1, human 5-HT4b receptor (Homo sapiens, UniProt Q13639).
T1 construct: expressed in transfected cells; host or cells: CHO cells (G418 selection)
As to the kind of experiment: Test Example 4: Serotonin 4 (5-HT4) receptor agonist activity assay, cAMP HTRF in CHO cells (Table 100). The format is cell-based. The note with it: mean value; for Emax: CHO, 0.25 h, intrinsic activity, maximal activity of 5-HT defined as 100%, read-out: IA (%); for EC50: concentration showing 50% of IA. The gist of the method: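 Read-out is HTRF cAMP (time-resolved fluorescence 620/665 nm after 1 h RT with cAMP-cryptate and cAMP-d2), from recombinant CHO cells bearing human 5-HT4b treated with compound 15 min at 31° C. in Hanks/HEPES buffer pH 7.4. IA (%) scaled to peak 5-HT effect over 10^−11–10^−7 M; EC50 is concentration giving half that IA.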
In general terms: In TR-FRET formats the signal depends on donor and acceptor labels being close together.

For assay [1], the target named is T2, Human 5-HT4 receptor (5-HT4b) (Homo sapiens, UniProt Q13639).
T2 construct: expressed in transfected cells; membrane preparation
T2 sequence (Q13639 whole entry): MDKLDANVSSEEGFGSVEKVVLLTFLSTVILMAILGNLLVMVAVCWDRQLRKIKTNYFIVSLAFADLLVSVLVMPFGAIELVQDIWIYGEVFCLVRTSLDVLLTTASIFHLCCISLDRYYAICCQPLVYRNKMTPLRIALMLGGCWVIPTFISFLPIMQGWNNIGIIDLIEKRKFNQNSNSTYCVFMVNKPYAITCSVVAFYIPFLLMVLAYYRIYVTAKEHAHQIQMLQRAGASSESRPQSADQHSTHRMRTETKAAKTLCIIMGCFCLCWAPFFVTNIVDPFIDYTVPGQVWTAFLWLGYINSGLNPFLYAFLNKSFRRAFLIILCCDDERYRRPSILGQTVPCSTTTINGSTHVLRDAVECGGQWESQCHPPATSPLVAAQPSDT
As to the kind of experiment: Test Example 3: Human 5-HT4 receptor binding assay, membranes of CHO-K1 cells stably expressing 5-HT4b receptors (Table 99). To be noted: mean value of each group. The gist of the method:
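Radioligand displacement: [3H]-GR113808 (0.1 nM) bound to CHO-K1 5-HT4b membranes for 30 min at 37 °C in Hepes buffer (50 mM, pH 7.4). Specific binding is total minus that with 30 μM serotonin; filter-bound radioactivity counted, IC50 derived from percent inhibition.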

T1 sequence (Q13639 whole entry): as above

The term EC50 denotes the concentration that produces a half-maximal response. Low readings indicate greater potency, high ones weaker potency. The term IC50 denotes the concentration that inhibits the measured activity by half. A lower IC50 goes with greater potency in that assay. For the molecule `CC(C)c1nn(-c2noc(C[C@H]3CCN(C[C@@H]4CCN(S(C)(=O)=O)C4)C3)n2)c2c(F)cccc12` [Example 504, 7-fluoro-1-(5-{[(3R)-1-{[(3S)-1-(methylsulfonyl)pyrrolidin-3-yl]methyl}pyrrolidin-3-yl]methyl}-1,2,4-oxadiazol-3-yl)-3-(propan-2-yl)-1H-indazole], at human 5-HT4b receptor, the Emax was determined as 47% and the EC50 came out at 3.9 nM. The IC50 in assay [1] is under 20 nM.

On to `CC(=O)N1CC[C@H](CN2CC[C@H](Cc3nc(-n4nc(C(C)C)c5cccc(F)c54)no3)C2)C1` [Example 505, 1-[(3R)-3-{[(3R)-3-({3-(7-fluoro-3-(propan-2-yl)-1H-indazol-1-yl]-1,2,4-oxadiazol-5-yl}methyl)pyrrolidin-1-yl]methyl}pyrrolidin-1-yl]ethanone], for which, at human 5-HT4b receptor, the Emax stood at 52% and the EC50 worked out at 5.5 nM. In assay [1], the half-inhibitory concentration (IC50) was under 20 nM.

Regarding `CC(C)c1nn(-c2noc(C[C@H]3CCN(C[C@H]4CCN(S(C)(=O)=O)C4)C3)n2)c2c(F)cccc12` [Example 506, 7-fluoro-1-(5-{[(3R)-1-{[(3R)-1-(methylsulfonyl)pyrrolidin-3-yl]methyl}pyrrolidin-3-yl]methyl}-1,2,4-oxadiazol-3-yl)-3-(propan-2-yl)-1H-indazole], on human 5-HT4b receptor, the Emax was 46% and a half-maximal effect (EC50) was put at 2.8 nM. In assay [1], this molecule had an IC50 of under 20 nM.

In the case of `CC(C)c1nn(-c2noc(C[C@@H]3CCN(C4CCN(S(C)(=O)=O)CC4)C3)n2)c2c(F)cccc12` [Example 508, 7-fluoro-1-[5-({(3S)-1-[1-(methylsulfonyl)piperidin-4-yl]pyrrolidin-3-yl}methyl)-1,2,4-oxadiazol-3-yl]-3-(propan-2-yl)-1H-indazole], at human 5-HT4b receptor, the Emax is 54% and a half-maximal response (EC50) required 3.7 nM. The 50% inhibitory concentration (IC50) in assay [1] is under 20 nM.

Regarding `CC(=O)N1CCC[C@H]1CN1CC[C@@H](Cc2nc(-n3nc(C(C)C)c4cccc(F)c43)no2)C1` [Example 509, 1-[(2S)-2-{[(3S)-3-({3-[7-fluoro-3-(propan-2-yl)-1H-indazol-1-yl]-1,2,4-oxadiazol-5-yl}methyl)pyrrolidin-1-yl]methyl)pyrrolidin-1-yl]ethanone], on human 5-HT4b receptor, the Emax is 56% and a half-maximal effect (EC50) was put at 16.3 nM. The molecule also displayed a half-maximal inhibitory concentration (IC50) in assay [1] of 27.4 nM.

With `CC(C)c1nn(-c2noc(C[C@@H]3CCN(C[C@@H]4CCCN4S(C)(=O)=O)C3)n2)c2c(F)cccc12` [Example 510, 7-fluoro-1-(5-{[(3S)-1-{[(2S)-1-(methylsulfonyl)pyrrolidin-2-yl]methyl}pyrrolidin-3-yl]methyl}-1,2,4-oxadiazol-3-yl)-3-(propan-2-yl)-1H-indazole], at human 5-HT4b receptor, the Emax came to 46% and the EC50 amounted to 2.7 nM. The half-inhibitory concentration (IC50) in assay [1] is under 20 nM.

With `CC(=O)N1CCC[C@@H]1CN1CC[C@@H](Cc2nc(-n3nc(C(C)C)c4cccc(F)c43)no2)C1` [Example 511, 1-[(2R)-2-{[(3S)-3-({3-[7-fluoro-3-(propan-2-yl)-1H-indazol-1-yl]-1,2,4-oxadiazol-5-yl}methyl)pyrrolidin-1-yl]methyl}pyrrolidin-1-yl]ethanone], at human 5-HT4b receptor, the Emax was found to be 51% and the EC50 was found to be 9.6 nM. This molecule gave an IC50 in assay [1] of under 20 nM.

Take `CC(C)c1nn(-c2noc(C[C@@H]3CCN(C[C@H]4CCCN4S(C)(=O)=O)C3)n2)c2c(F)cccc12` [Example 512, 7-fluoro-1-(5-{[(3S)-1-{[(2R)-1-(methylsulfonyl)pyrrolidin-2-yl]methyl}pyrrolidin-3-yl]methyl}-1,2,4-oxadiazol-3-yl)-3-(propan-2-yl)-1H-indazole]: at human 5-HT4b receptor, the Emax turned out to be 30% and the half-maximal effective concentration (EC50) was determined as 4.3 nM. Moreover, the IC50 in assay [1] was under 20 nM.

In the case of `CC(=O)N1CC(CN2CC[C@@H](Cc3nc(-n4nc(C(C)C)c5cccc(F)c54)no3)C2)C1` [Example 513, 1-(3-{[(3S)-3-({3-[7-fluoro-3-(propan-2-yl)-1H-indazol-1-yl]-1,2,4-oxadiazol-5-yl}methyl)pyrrolidin-1-yl]methyl}azetidin-1-yl)ethanone], on human 5-HT4b receptor, the Emax is 81% and the EC50 worked out at 10.2 nM. The half-inhibitory concentration (IC50) in assay [1] is under 20 nM.

Take `CC(C)c1nn(-c2noc(C[C@@H]3CCN(CC4CN(S(C)(=O)=O)C4)C3)n2)c2c(F)cccc12` [Example 514, 7-fluoro-1-(5-{[(3S)-1-{[1-(methylsulfonyl)azetidin-3-yl]methyl}pyrrolidin-3-yl]methyl}-1,2,4-oxadiazol-3-yl)-3-(propan-2-yl)-1H-indazole]: at human 5-HT4b receptor, the Emax was 70% and the response was half-maximal at 12 nM (EC50). This molecule yielded an IC50 in assay [1] of under 20 nM.

Consider `CC(=O)N1CC[C@@H](CN2CC[C@@H](Cc3nc(-n4nc(C(C)C)c5cccc(F)c54)no3)C2)C1` [Example 515], for which, on human 5-HT4b receptor, the Emax came out at 70% and a half-maximal effect (EC50) was put at 8.5 nM. This molecule also yielded a half-maximal inhibitory concentration (IC50) in assay [1] of under 20 nM.

In the case of `CC(C)c1nn(-c2noc(C[C@@H]3CCN(C[C@@H]4CCN(S(C)(=O)=O)C4)C3)n2)c2c(F)cccc12` [Example 516, 7-fluoro-1-(5-{[(3S)-1-{[(3S)-1-(methylsulfonyl)pyrrolidin-3-yl]methyl}pyrrolidin-3-yl]methyl}-1,2,4-oxadiazol-3-yl)-3-(propan-2-yl)-1H-indazole], at human 5-HT4b receptor, the Emax worked out at 75% and the response was half-maximal at 7.2 nM (EC50). In assay [1], the IC50 is under 20 nM.

Consider `CC(=O)N1CC[C@H](CN2CC[C@@H](Cc3nc(-n4nc(C(C)C)c5cccc(F)c54)no3)C2)C1` [Example 517, 1-[(3R)-3-{[(3S)-3-({3-[7-fluoro-3-(propan-2-yl)-1H-indazol-1-yl]-1,2,4-oxadiazol-5-yl}methyl)pyrrolidin-1-yl]methyl}pyrrolidin-1-yl]ethanone], for which, at human 5-HT4b receptor, the Emax stood at 72% and a half-maximal effect (EC50) was put at 6.1 nM. Besides, the concentration for half-maximal inhibition (IC50) in assay [1] is under 20 nM.

As to `CC(C)c1nn(-c2noc(C[C@@H]3CCN(C[C@H]4CCN(S(C)(=O)=O)C4)C3)n2)c2c(F)cccc12` [Example 518, 7-fluoro-1-(5-{[(3S)-1-{[(3R)-1-(methylsulfonyl)pyrrolidin-3-yl]methyl}pyrrolidin-3-yl]methyl}-1,2,4-oxadiazol-3-yl)-3-(propan-2-yl)-1H-indazole], at human 5-HT4b receptor, the Emax amounted to 59% and the half-maximal effective concentration (EC50) amounted to 5.5 nM. The same molecule registered an IC50 in assay [1] of under 20 nM.

On to `O=C(CO)N1CCC(N2CCC(c3nc(-n4nc(C5CC5)c5cccc(F)c54)no3)CC2)CC1` [Example 523, 1-{4-[3-(3-cyclopropyl-7-fluoro-1H-indazol-1-yl)-1,2,4-oxadiazol-5-yl]-1,4′-bipiperidin-1′-yl}-2-hydroxyethanone], for which, on human 5-HT4b receptor, the Emax stood at 24% and a half-maximal effect (EC50) was put at 2.9 nM. In assay [1], the IC50 was under 20 nM.

Regarding `CCCc1nn(-c2noc(C3CCN(C4CCN(C(=O)CO)CC4)CC3)n2)c2c(F)cccc12` [Example 524, 1-{4-[3-(7-fluoro-3-propyl-1H-indazol-1-yl)-1,2,4-oxadiazol-5-yl]-1,4′-bipiperidin-1′-yl}-2-hydroxyethanone], at human 5-HT4b receptor, the Emax was found to be 84% and the midpoint of the response, the EC50, lay at 4.3 nM. In assay [1], this molecule gave an IC50 of under 20 nM.

Turning to `Cc1nn(-c2noc(C3CCN(C4CCN(C(=O)CO)CC4)CC3)n2)c2c(F)cccc12` [Example 525, 1-{4-[3-(7-fluoro-3-methyl-1H-indazol-1-yl)-1,2,4-oxadiazol-5-yl]-1,4′-bipiperidin-1′-yl}-2-hydroxyethanone], on human 5-HT4b receptor, the Emax was found to be 86% and the EC50 stood at 18.1 nM. For the same molecule, the IC50 in assay [1] was under 20 nM.

Regarding `O=C(CO)N1CCC(N2CCC(c3nc(-n4nc(C5CCC5)c5cccc(F)c54)no3)CC2)CC1` [Example 527, 1-{4-[3-(3-cyclobutyl-7-fluoro-1H-indazol-1-yl)-1,2,4-oxadiazol-5-yl]-1,4′-bipiperidin-1′-yl}-2-hydroxyethanone], on human 5-HT4b receptor, the Emax was 114% and the EC50 was found to be 5.7 nM. This molecule also had an IC50 in assay [1] of under 20 nM.

Consider `CCC(C)c1nn(-c2noc(C3CCN(C4CCN(C(=O)CO)CC4)CC3)n2)c2c(F)cccc12` (stereo not drawn) [Example 528, 1-(4-{3-[3-(butan-2-yl)-7-fluoro-1H-indazol-1-yl]-1,2,4-oxadiazol-5-yl}-1,4′-bipiperidin-1′-yl)-2-hydroxyethanone], for which, on human 5-HT4b receptor, the Emax turned out to be 121% and the response was half-maximal at 17.3 nM (EC50). The molecule further had a half-maximal inhibitory concentration (IC50) in assay [1] of under 20 nM.

As to `CC(C)c1nn(-c2noc(C3CCN(C4CCN(C(=O)CO)CC4(C)C)CC3)n2)c2c(F)cccc12` (stereo not drawn) [Example 531, 1-(4-{3-[7-fluoro-3-(propan-2-yl)-1H-indazol-1-yl]-1,2,4-oxadiazol-5-yl}-3′,3′-dimethyl-1,4′-bipiperidin-1′-yl)-2-hydroxyethanone], on human 5-HT4b receptor, the Emax is 95% and the half-maximal effective concentration (EC50) turned out to be 11.4 nM. In assay [1], this molecule yielded an IC50 of under 20 nM.

Take `CC(C)c1nn(-c2noc(C3CCN(C4C5CCC4CN(C(=O)CO)C5)CC3)n2)c2c(F)cccc12` (stereo not drawn) [Example 534, 1-[(8-anti)-8-(4-(3-[7-fluoro-3-(propan-2-yl)-1H-indazol-1-yl]-1,2,4-oxadiazol-5-yl}piperidin-1-yl)-3-azabicyclo[3.2.1]oct-3-yl]-2-hydroxyethanone]: at human 5-HT4b receptor, the Emax is 104% and the 50% effective concentration (EC50) is 5.7 nM. The IC50 in assay [1] is 42.4 nM.

As for `CC(C)c1nn(-c2noc(C3CCN([C@H]4[C@@H]5CCC[C@H]4CN(C(=O)CO)C5)CC3)n2)c2c(F)cccc12` [Example 536, 1-[(9-syn)-9-(4-{3-[7-fluoro-3-(propan-2-yl)-1H-indazol-1-yl]-1,2,4-oxadiazol-5-yl}piperidin-1-yl)-3-azabicyclo[3.3.1]non-3-yl]-2-hydroxyethanone], at human 5-HT4b receptor, the Emax amounted to 100% and the response was half-maximal at 3.7 nM (EC50). This molecule also returned a half-inhibitory concentration (IC50) in assay [1] of under 20 nM.
